These results are taken from patent US20080171779A1, “USE OF 5-HT6 ANTAGONISTS TO PREVENT RELAPSE INTO ADDICTION” (Solvay Pharmaceuticals B.V., priority 2007, published 2008).

The test system of assay [1] is cue-induced relapse of alcohol seeking in the rat. Put plainly: Stimulus (cue) induced reinstatement of extinguished self-administration of alcohol. The class given is in vivo. As to conditions: 20 mg/kg.
Assay [2] has the same test system. The assay is described as above. In kind it is in vivo. As to conditions: for Nose-pokes after an alcohol induced cue, former alcoholics / Nose-pokes after an alcohol induced cue, total abstainers: 45 min test, mean ± spread; for amount of active nose-pokes versus placebo, cue induced alcohol seeking: one-way ANOVA, Fisher's LSD; for inactive nose-pokes versus placebo, cue induced alcohol seeking: all tested dosages. On the procedure: After learning to consume alcohol 12% (v/v) in a two-bottle paradigm, rats were trained to self-administer alcohol in the operant cage. When response-rates were stable, animals were withdrawn from alcohol for three weeks. Subsequently, the effect of 5-HT6 antagonists on relapse was tested by re-exposing the animals to alcohol-related stimuli.
Animals: 64 male Wistar rats, weighing 280-300 g at arrival (Harlan, the Netherlands) were used for testing compound 33. The animals were housed individually in a temperature—(T=22±2° C.) and humidity (rel %=60±5%) controlled room on a reversed 12 h light-dark cycle (lights off at 7:00 AM) with water available ad libitum. The animals were on a diet of 18 gr chow per animal per day. The experiment started after one week of acclimatization and lasted 12-14 weeks.
Drug Self-administration: All training and testing was conducted in 16 operant chambers (30.5×24.1×29.2 cm) surrounded by sound attenuating ventilated cubicles (Med Associates, Georgia, Vt.). The chambers were fitted with a grid floor, a red dim house light and opposite the house light an intelligence panel. In the intelligence panel there were two nose-poke holes (Ø2.5 cm) located 5.5 cm above the grid floor and 16 cm separated from each other. A red dim stimulus light was located 12 cm above both nose-poke holes. Between the two nose-poke holes, a receptacle was located, in which the alcohol was delivered. High above the receptacle was a sonalert tone module. […] The alcohol drop was delivered by an infusion pump (PHM-100, MedAssociates, Georgia, Vt.) in 4.2 seconds During alcohol delivery, the active nose-poke hole was illuminated and a tone (±65 dB) was presented by the sonalert tone module for 2 seconds. The receptacle was illuminated for 5 seconds (discrete cues). The stimulus light switched off for 15 seconds (discriminative cue). In this 15 second time-out period, nose-poking was without consequences.
Animals were selected for further testing if they consumed alcohol doses (in the FR4-schedule) above the literature described pharmacological effective dose of 0.3 g/kg/hr (Linseman, 1987). Subsequently, when response behavior on the FR4-schedule was stable, there was a 3 week period of withdrawal in the homecage.
Test for reinstatement: After the withdrawal period, each animal was tested twice for cue induced reinstatement with a week of further extinction training and wash-out in between. Animals were randomly distributed over the different experimental groups and never received the same treatment twice. On test days, the animals were placed in the operant cage for three or four hours (test day 1: 4 hr; test day 2: 3 hr) in absence of alcohol and alcohol related stimuli (discrete and discriminative cues) to extinguish response behavior. One hour before the end of this extinction session, the animal was removed from the operant cage and treated with a 5-HT6 antagonist. After drug administration the animals was placed back into the operant chamber, where the session continued. When the last hour had passed, the cue-induced relapse test session started (duration: 45 min). During this test, the experimental conditions were similar to the conditions during training on an FR4-schedule, with the exceptions that 1) at the beginning of the session, a 12% alcohol drop of 0.20 ml was available (delivered in the receptacle by the experimenter at the begin of the test session) and 2) after every 4th response, only cues were presented (no alcohol was delivered). Tests were operated and raw data was saved by the MED-PC IV program (Tatham, 1989).
Drugs: Alcohol 12% (v/v) was made from alcohol 96% and diluted with tap water. Compound 33 was suspended in 5% Tween 80, 0.25% methylcellulose, 5% PEG 400 and H2O HPLC (65% of end volume). Ethanol was added and evaporated under N2-gas. The pH was adjusted to 5.8. In the range: 0, 3,10, and 30 mg/kg, compound 33 was administered intraperitoneally, 15 minutes before testing. The injection volume was 2 ml/kg. […]

Assay [3] concerns relapse behavior induced by conditioned drug cues (cocaine, heroin, nicotine, alcohol). Particulars: cues previously associated with cocaine, nicotine and alcohol delivery; cited from earlier work.
For assay [4], the system named is cue-induced relapse of nicotine seeking in the rat. Put plainly: Stimulus (cue) induced reinstatement of extinguished self-administration of nicotine. The class given is in vivo. As to conditions: for Nose-pokes after a nicotine induced cue, total abstainers / Nose-pokes after a nicotine induced cue, former nicotine addicts: 30 min test, mean ± spread; for Nose-pokes after a nicotine induced cue, former nicotine addicts: column 'former nicotine addicts'. The text has this: Using a very similar test protocol, 5-HT6 antagonists were also found to suppress cue-induced nicotine-seeking behavior. Thus 5-HT6 antagonists are believed useful for the preparation of medicaments for preventing relapse into addiction, in particular relapse into addiction to substances of abuse, including opiates, hallucinogens, inhalants, phencyclidine, amphetamines, cocaine, cannabis, nicotine, and alcohol, medicaments for preventing relapse to addiction to certain medicines, including sedatives, hypnotics and anxiolytics, and medicaments for preventing relapse to certain addictive behaviors, including gambling.
Animals: 32 male Wistar rats, weighing 280-300 g at arrival (Harlan, the Netherlands) were used for testing compound 33. The animals were housed individually in a temperature—(T=22±2° C.) and humidity (rel %=60±5%) controlled room on a reversed 12 h light-dark cycle (lights off at 7:00 AM) with water and food available ad libitum. The experiment started after one week of acclimatization and lasted 12-14 weeks.
Surgery: after a week of acclimatization, intravenous silicon catheters are implanted in the right jugular vein under isoflurane anesthesia as described previously in De Vries, 1999.
Drug Self-administration: All training and testing was conducted in 16 operant chambers (30.5×24.1×29.2 cm) surrounded by sound attenuating ventilated cubicles (Med Associates, Georgia, Vt.). The chambers were fitted with a grid floor, a red dim house light and opposite the house light an intelligence panel. In the intelligence panel there were two nose-poke holes (Ø2.5 cm) located 5.5 cm above the grid floor and 16 cm separated from each other. A red dim stimulus light was located 12 cm above both nose-poke holes. A tone module was located at the top of the center of the intelligence panel. During self-administration, animals were connected to an infusion pump (PHM-100, Med Associates, Georgia, V.T.) by a swivel to receive intravenous infusions of nicotine (40 μg/kg/inf). […] During this infusion, the active nose poke hole was illuminated (yellow light) and an audio stimulus was presented (tone of 2900 Hz and 65 dB for 2 seconds) (discrete cues). From the moment of nicotine delivery, the stimulus light switched off for 15 seconds (discriminative cue). In this time-out period, nose poking was without consequences.
Acquisition, withdrawal and reinstatement: Behavioral training started 5-7 days after surgery. […] When response behavior was stable, animals were selected for further testing if they earned at least 5 rewards during the last three sessions of the FR3 schedule and the reward delivery was equal distributed over the session. Subsequently, responding for nicotine was extinguished. In this extinction phase (11 daily sessions of 60 min), the animals were placed in the operant chambers, but the nicotine and nicotine related stimuli (discrete and discriminative cues) were not available. Finally, the animals were tested for cue-induced reinstatement. During this test (duration of 30 minutes), the experimental conditions were similar to the conditions during training on an FR3-schedule, with the exception that no nicotine was available and the animals were not connected to the swivel.
Tests for cue-induced reinstatement were conducted twice; between these two test days, there was a week of further extinction training (wash-out period). During cue-induced reinstatement, effects of 5-HT6 antagonists were studied on output measurements.
Drugs: Nicotine for self-administration: (−) nicotine hydrogen tartrate salt (Sigma, St Louis, Mo.) was dissolved in sterile saline. The pH of the solution was adjusted to +/−7.4 with diluted NaOH. Nicotine dose was expressed as free base weight. Compound 33 was suspended in 5% of end volume Tween 80. Ethanol was added and evaporated under N2-gas for 30 minutes. […] After the pH was adjusted to 5.5, 10% of end volume H2O HPLC was added. […]

As to `COc1ccc(NS(=O)(=O)c2sc3ccc(Cl)cc3c2C)cc1N1CCNCC1.Cl` [SB-271046, reference compound], in assay [1], the “relapse into addiction (alcohol)” value is listed as “prevented from relapse into addiction”. Also, the “Nose-pokes after an alcohol induced cue, total abstainers” value was determined as 2.7 ± 1.9 in assay [1] ('total abstainers', 45 min test, mean ± spread); 1.1 ± 0.5 in assay [2] (3 mg/kg); 0.9 ± 0.5 in assay [2] (10 mg/kg). For the same compound, the “amount of active nose-pokes versus placebo, cue induced alcohol seeking” value in assay [1] (one-way ANOVA, Fisher's LSD, p<0.005) was “significantly lower”; in assay [2] (10 mg/kg, p<0.05) it was “significantly lower”. The “Nose-pokes after an alcohol induced cue, former alcoholics” value in assay [2] (3 mg/kg) came to 11.9 ± 5.4. Also, the “inactive nose-pokes versus placebo, cue induced alcohol seeking” value in assay [2] is reported as “no significant difference”.
For the compound `Cc1c(C(=O)NN2CCCCC2)nn(-c2ccc(Cl)cc2Cl)c1-c1ccc(Cl)cc1` [SR141716A], the “relapse behavior induced by conditioned drug cues” value in assay [3] is “able to selectively reduce relapse behavior”.
On to `CCN/C(=N\S(=O)(=O)c1cccc(Cl)c1)N1CC(C)(C)C=N1` [compound 33], for which the “Nose-pokes after a nicotine induced cue, total abstainers” value in assay [4] (3 mg/kg intraperitoneally) is reported as 4.58 ± 1.17; in assay [4] (10 mg/kg intraperitoneally) it was 3.00 ± 1.04; in assay [4] (30 mg/kg intraperitoneally) it was 1.75 ± 0.74. In addition, the “Nose-pokes after a nicotine induced cue, former nicotine addicts” value is listed as 24.83 ± 3.20 in assay [4] (3 mg/kg intraperitoneally) and 28.50 ± 7.40 in assay [4] (10 mg/kg intraperitoneally). The “relapse into addiction (nicotine)” value in assay [4] (30 mg/kg) was “prevented from relapse into addiction”. The “amount of active nose-pokes versus placebo, cue induced nicotine seeking” value in assay [4] (30 mg/kg, one-way ANOVA, Fisher's LSD, p<0.05) is “significantly lower”. In addition, the “inactive nose-pokes versus placebo, cue induced nicotine seeking” value in assay [4] (all tested dosages) is given as “no significant difference”. Also, the entries for the “Nose-pokes after an alcohol induced cue, former alcoholics” value in assay [2] (3 mg/kg) and in assay [2] (10 mg/kg) were 27.0 ± 6.1 and 23.5 ± 4.2, respectively. Further, the “Nose-pokes after an alcohol induced cue, total abstainers” value in assay [2] (3 mg/kg) is recorded as 1.1 ± 0.2; in assay [2] (10 mg/kg), 2.2 ± 1.5; in assay [2] (30 mg/kg), 0.8 ± 0.1. In assay [2] (30 mg/kg), the “relapse into addiction (alcohol)” value is recorded as “prevented from relapse into addiction”. The “amount of active nose-pokes versus placebo, cue induced alcohol seeking” value in assay [2] (30 mg/kg, p<0.005) is listed as “significantly lower”. In addition, in assay [2], the “inactive nose-pokes versus placebo, cue induced alcohol seeking” value is given as “no significant difference”.
